According to patent US8133998B2, “Bicyclic pyrimidine derivatives as calcium channel blockers” (Zalicus Pharmaceuticals, Ltd., priority 2007, dated 2012):

Target: T1, human α1G T-type channels (Homo sapiens, UniProt O43497)
T1 construct: expressed in transfected cells; host or cells: HEK 293
Assay: T-type calcium channel block, whole cell patch clamp in HEK cells
Assay type: cell-based
Conditions: HEK cells stably expressing human α1G; measured at 1 μM drug; mainly non-inactivated protocol
Experimental: (§1) T-type calcium channel blocking activity was assayed in human embryonic kidney cells, HEK 293, stably transfected with the T-type calcium channel subunits. Briefly, cells were cultured in Dulbecco's modified eagle medium (DMEM) supplemented with 10% fetal bovine serum, 200 U/ml penicillin and 0.2 mg/ml streptomycin at 37° C. with 5% CO2. At 85% confluency cells were split with 0.25% trypsin/1 mM EDTA and plated at 10% confluency on glass coverslips. At 12 hours the medium was replaced and the cells stably transfected using a standard calcium phosphate protocol and the appropriate calcium channel cDNA's. Fresh DMEM was supplied and the cells transferred to 28° C./5% CO2. Cells were incubated for 1 to 2 days prior to whole cell recording.
(§2) Standard patch-clamp techniques were employed to identify blockers of T-type currents. Briefly, previously described HEK cell lines stably expressing human α1G, α1H and α1I T-type channels were used for all the recordings (passage #: 4-20, 37° C., 5% CO2). Whole cell patch clamp experiments were performed using an Axopatch 200B amplifier (Axon Instruments, Burlingame, Calif.) linked to a personal computer equipped with pCLAMP software. Data were analyzed using Clampfit (Axon Instruments) and SigmaPlot 4.0 (Jandel Scientific). To obtain T-type currents, plastic dishes containing semi-confluent cells were positioned on the stage of a ZEISS AXIOVERT S100 microscope after replacing the culture medium with external solution (see below). Whole-cell patches were obtained using pipettes (borosilicate glass with filament, O.D.: 1.5 mm, I.D.: 0.86 mm, 10 cm length), fabricated on a SUTTER P-97 puller with resistance values of ˜5 MΩ (see below for internal solution).
(§3) In the non-inactivating protocol, the holding potential is set at −110 mV and with a pre-pulse at −100 mV for 1 second prior to the test pulse at −40 mV for 50 ms. In the inactivation protocol, the pre-pulse is at approximately −85 mV for 1 second, which inactivates about 15% of the T-type channels.
(§4) Test compounds were dissolved in external solution, 0.1-0.01% DMSO. After ˜10 min rest, they were applied by gravity close to the cell using a WPI microfil tubing. The “non-inactivated” pre-pulse was used to examine the resting block of a compound. The “inactivated” protocol was employed to study voltage-dependent block. However, the initial data shown below were mainly obtained using the non-inactivated protocol only. Kd values are shown for various compounds of the invention in Table 4 measured at 1 μM for the drug of interest except for compound 18 which was measured at 200 nM.

T1 sequence (O43497 whole entry): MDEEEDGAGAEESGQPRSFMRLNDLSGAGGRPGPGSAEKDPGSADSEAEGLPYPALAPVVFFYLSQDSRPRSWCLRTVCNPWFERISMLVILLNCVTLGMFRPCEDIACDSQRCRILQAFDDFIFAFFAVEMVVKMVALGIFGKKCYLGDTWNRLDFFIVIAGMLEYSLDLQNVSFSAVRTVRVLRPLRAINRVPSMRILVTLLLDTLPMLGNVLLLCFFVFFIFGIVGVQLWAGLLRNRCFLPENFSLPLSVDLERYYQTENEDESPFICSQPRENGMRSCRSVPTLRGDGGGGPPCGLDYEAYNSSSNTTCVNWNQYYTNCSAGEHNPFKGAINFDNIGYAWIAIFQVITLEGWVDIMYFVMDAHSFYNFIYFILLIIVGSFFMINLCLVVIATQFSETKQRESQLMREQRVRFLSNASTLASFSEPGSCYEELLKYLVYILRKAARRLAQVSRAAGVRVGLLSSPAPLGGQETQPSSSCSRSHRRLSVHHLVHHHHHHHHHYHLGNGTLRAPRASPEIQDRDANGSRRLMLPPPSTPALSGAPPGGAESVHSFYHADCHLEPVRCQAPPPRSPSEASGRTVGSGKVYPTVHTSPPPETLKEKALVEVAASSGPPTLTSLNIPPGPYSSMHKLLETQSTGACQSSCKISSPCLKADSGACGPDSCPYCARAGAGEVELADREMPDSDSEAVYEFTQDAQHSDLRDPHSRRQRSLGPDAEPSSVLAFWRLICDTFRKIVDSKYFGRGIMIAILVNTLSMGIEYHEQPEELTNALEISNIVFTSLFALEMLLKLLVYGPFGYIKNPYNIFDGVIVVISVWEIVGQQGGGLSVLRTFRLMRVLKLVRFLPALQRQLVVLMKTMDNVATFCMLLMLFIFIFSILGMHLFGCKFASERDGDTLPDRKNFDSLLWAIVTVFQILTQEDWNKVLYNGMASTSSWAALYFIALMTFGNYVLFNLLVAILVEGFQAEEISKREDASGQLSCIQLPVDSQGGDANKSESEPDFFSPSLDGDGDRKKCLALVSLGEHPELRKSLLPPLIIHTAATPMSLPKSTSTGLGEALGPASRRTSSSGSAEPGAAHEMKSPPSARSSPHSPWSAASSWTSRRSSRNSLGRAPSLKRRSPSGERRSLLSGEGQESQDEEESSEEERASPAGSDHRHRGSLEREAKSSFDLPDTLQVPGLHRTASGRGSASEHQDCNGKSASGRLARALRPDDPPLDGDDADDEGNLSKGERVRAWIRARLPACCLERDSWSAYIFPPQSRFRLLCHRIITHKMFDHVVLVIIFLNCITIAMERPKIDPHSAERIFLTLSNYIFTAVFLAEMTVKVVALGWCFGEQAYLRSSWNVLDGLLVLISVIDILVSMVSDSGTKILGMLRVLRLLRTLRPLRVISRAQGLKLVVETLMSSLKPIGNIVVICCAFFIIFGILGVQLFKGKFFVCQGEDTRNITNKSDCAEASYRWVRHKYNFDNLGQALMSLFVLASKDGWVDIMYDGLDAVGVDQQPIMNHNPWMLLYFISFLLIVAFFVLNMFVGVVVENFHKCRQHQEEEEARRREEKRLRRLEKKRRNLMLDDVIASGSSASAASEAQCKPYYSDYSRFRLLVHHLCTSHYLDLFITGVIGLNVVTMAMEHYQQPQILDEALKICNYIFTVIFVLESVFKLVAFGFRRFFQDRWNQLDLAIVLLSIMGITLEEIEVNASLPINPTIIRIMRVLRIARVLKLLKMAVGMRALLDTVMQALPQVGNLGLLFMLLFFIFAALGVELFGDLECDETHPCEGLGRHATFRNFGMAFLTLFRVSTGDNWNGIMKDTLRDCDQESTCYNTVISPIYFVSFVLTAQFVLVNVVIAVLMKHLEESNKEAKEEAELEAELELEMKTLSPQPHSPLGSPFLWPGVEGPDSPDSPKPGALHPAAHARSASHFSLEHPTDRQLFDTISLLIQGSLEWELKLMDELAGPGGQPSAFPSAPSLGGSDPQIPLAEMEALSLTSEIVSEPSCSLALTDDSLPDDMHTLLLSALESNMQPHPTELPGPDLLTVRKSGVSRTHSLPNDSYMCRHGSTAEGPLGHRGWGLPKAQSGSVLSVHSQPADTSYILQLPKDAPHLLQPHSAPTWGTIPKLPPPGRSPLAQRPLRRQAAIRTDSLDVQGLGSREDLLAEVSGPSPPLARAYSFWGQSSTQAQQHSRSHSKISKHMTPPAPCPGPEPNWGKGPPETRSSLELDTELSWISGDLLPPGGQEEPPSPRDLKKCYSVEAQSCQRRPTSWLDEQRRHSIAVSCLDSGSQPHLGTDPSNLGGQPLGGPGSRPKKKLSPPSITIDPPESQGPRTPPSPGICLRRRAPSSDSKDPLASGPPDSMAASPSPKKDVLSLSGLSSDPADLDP

| Kd [nM] | Structure (SMILES) |
| --- | --- |
| 400 | Cc1c(C(=O)NC(C)(C)C)sc2ncn(CC(=O)Nc3cc(C(F)(F)F)cc(C(F)(F)F)c3)c(=O)c12 [Compound 68, 3-(2-(3,5-bis(trifluoromethyl)phenylamino)-2-oxoethyl)-N-tert-butyl-5-methyl-4-oxo-3,4-dihydrothieno[2,3-d]pyrimidine-6-carboxamide] |
| 5310 | Cc1c(C(=O)N2CCCC2)sc2ncn(CC(=O)Nc3cc(C(F)(F)F)cc(C(F)(F)F)c3)c(=O)c12 [Compound 70, N-(3,5-bis(trifluoromethyl)phenyl)-2-(5-methyl-4-oxo-6-(pyrrolidine-1-carbonyl)thieno[2,3-d]pyrimidin-3(4H)-yl)acetamide] |
| > 74300 | Cc1c(C(=O)N2CC[C@H](F)C2)sc2ncn(CC(=O)Nc3cc(C(F)(F)F)cc(C(F)(F)F)c3)c(=O)c12 [Compound 71, (S)-N-(3,5-bis(trifluoromethyl)phenyl)-2-(5-methyl-4-oxo-6-(3-fluoropyrrolidine-1-carbonyl)thieno[2,3-d]pyrimidin-3(4H)-yl)acetamide] |
| 2700 | Cc1c(C(=O)N2CCN(c3cc(C(F)(F)F)cc(C(F)(F)F)c3)CC2)sc2ncn(CCN3CCCC3=O)c(=O)c12 [Compound 93, 6-(4-(3,5-bis(trifluoromethyl)phenyl)piperazine-1-carbonyl)-5-methyl-3-(2-(2-oxopyrrolidin-1-yl)ethyl)thieno[2,3-d]pyrimidin-4(3H)-one] |
| 20300 | Cc1c(C(=O)N2CCN(c3ccc(Cl)cc3)CC2)sc2ncn(CCN3CCCC3=O)c(=O)c12 [Compound 94, 6-(4-(4-chlorophenyl)piperazine-1-carbonyl)-5-methyl-3-(2-(2-oxopyrrolidin-1-yl)ethyl)thieno[2,3-d]pyrimidin-4(3H)-one] |
| 2660 | Cc1c(C(=O)N2CCN(c3ccccc3F)CC2)sc2ncn(CCN3CCCC3=O)c(=O)c12 [Compound 95, 6-(4-(2-fluorophenyl)piperazine-1-carbonyl)-5-methyl-3-(2-(2-oxopyrrolidin-1-yl)ethyl)thieno[2,3-d]pyrimidin-4(3H)-one] |
| 4280 | O=C(Cn1cnc2ccc(C(=O)N3CCN(c4cccc(Cl)c4)CC3)cc2c1=O)N1CCCC1 [Compound 115, 6-(4-(3-chlorophenyl)piperazine-1-carbonyl)-3-(2-oxo-2-(pyrrolidin-1-yl)ethyl) quinazolin-4(3H)-one] |
| 3600 | CCN(CC(F)(F)F)C(=O)Cn1cnc2sc(C(=O)N3CCN(c4ccccc4F)CC3)c(C)c2c1=O [Compound 128, N-ethyl-2-(6-(4-(2-fluoro-phenyl)piperazine-1-carbonyl)-5-methyl-4-oxothieno[2,3-d]pyrimidin-3(4H)-yl)-N-(2,2,2-trifluoroethyl)acetamide] |
| 1560 | Cc1c(C(=O)N2CCN(c3cccc(Cl)c3)CC2)sc2ncn(CC(=O)N3CCCC3)c(=O)c12 [Compound 136, 6-(4-(3-chloro-phenyl)piperazine-1-carbonyl)-5-methyl-3-(2-oxo-2-(pyrrolidin-1-yl)ethyl)thieno[2,3-d]pyrimidin-4(3H)-one] |

Continued, molecule first:

| Structure (SMILES) | Kd [nM] |
| --- | --- |
| CCN(CC)C(=O)Cn1cnc2sc(C(=O)N3CCN(c4cccc(Cl)c4)CC3)c(C)c2c1=O [Compound 1, 2-(6-(4-(3-chlorophenyl)piperazine-1-carbonyl)-5-methyl-4-oxothieno[2,3-d]pyrimidin-3(4H)-yl)-N,N-diethylacetamide] | 2440 |
| CCN(CC)C(=O)Cn1cnc2sc(C(=O)N3CCN(c4ccccc4Cl)CC3)c(C)c2c1=O [Compound 4, 2-(6-(4-(2-chlorophenyl)piperazine-1-carbonyl)-5-methyl-4-oxothieno[2,3-d]pyrimidin-3(4H)-yl)-N,N-diethylacetamide] | 4120 |
| CCN(CC)C(=O)Cn1cnc2sc(C(=O)N3CCN(c4ccc(Cl)cc4)CC3)c(C)c2c1=O [Compound 5, 2-(6-(4-(4-chlorophenyl)piperazine-1-carbonyl)-5-methyl-4-oxothieno[2,3-d]pyrimidin-3(4H)-yl)-N,N-diethylacetamide] | 1230 |
| CCN(CC)C(=O)Cn1cnc2sc(C(=O)N3CCN(c4ccccc4C(F)(F)F)CC3)c(C)c2c1=O [Compound 9, N,N-diethyl-2-(5-methyl-4-oxo-6-(4-(2-(trifluoromethyl)phenyl)piperazine-1-carbonyl)thieno[2,3-d]pyrimidin-3(4H)-yl)acetamide] | 3730 |
| Cc1c(C(=O)N2CCC(C(F)(F)F)CC2)sc2ncn(CC(=O)Nc3cccc(C(F)(F)F)c3)c(=O)c12 [Compound 63] | 1840 |
| Cc1c(C(N)=O)sc2ncn(CC(=O)Nc3cc(C(F)(F)F)cc(C(F)(F)F)c3)c(=O)c12 [Compound 67, 3-(2-(3,5-bis(trifluoromethyl)phenylamino)-2-oxoethyl)-5-methyl-4-oxo-3,4-dihydrothieno[2,3-d]pyrimidine-6-carboxamide] | 2800 |

Target: T2, human α1H T-type channels (Homo sapiens, UniProt O95180)
T2 construct: expressed in transfected cells; host or cells: HEK 293
Assay: as above
Assay type: cell-based
Conditions: HEK cells stably expressing human α1H; measured at 1 μM drug; mainly non-inactivated protocol
Experimental: as §1, §2, §3, §4

T2 sequence (O95180 whole entry): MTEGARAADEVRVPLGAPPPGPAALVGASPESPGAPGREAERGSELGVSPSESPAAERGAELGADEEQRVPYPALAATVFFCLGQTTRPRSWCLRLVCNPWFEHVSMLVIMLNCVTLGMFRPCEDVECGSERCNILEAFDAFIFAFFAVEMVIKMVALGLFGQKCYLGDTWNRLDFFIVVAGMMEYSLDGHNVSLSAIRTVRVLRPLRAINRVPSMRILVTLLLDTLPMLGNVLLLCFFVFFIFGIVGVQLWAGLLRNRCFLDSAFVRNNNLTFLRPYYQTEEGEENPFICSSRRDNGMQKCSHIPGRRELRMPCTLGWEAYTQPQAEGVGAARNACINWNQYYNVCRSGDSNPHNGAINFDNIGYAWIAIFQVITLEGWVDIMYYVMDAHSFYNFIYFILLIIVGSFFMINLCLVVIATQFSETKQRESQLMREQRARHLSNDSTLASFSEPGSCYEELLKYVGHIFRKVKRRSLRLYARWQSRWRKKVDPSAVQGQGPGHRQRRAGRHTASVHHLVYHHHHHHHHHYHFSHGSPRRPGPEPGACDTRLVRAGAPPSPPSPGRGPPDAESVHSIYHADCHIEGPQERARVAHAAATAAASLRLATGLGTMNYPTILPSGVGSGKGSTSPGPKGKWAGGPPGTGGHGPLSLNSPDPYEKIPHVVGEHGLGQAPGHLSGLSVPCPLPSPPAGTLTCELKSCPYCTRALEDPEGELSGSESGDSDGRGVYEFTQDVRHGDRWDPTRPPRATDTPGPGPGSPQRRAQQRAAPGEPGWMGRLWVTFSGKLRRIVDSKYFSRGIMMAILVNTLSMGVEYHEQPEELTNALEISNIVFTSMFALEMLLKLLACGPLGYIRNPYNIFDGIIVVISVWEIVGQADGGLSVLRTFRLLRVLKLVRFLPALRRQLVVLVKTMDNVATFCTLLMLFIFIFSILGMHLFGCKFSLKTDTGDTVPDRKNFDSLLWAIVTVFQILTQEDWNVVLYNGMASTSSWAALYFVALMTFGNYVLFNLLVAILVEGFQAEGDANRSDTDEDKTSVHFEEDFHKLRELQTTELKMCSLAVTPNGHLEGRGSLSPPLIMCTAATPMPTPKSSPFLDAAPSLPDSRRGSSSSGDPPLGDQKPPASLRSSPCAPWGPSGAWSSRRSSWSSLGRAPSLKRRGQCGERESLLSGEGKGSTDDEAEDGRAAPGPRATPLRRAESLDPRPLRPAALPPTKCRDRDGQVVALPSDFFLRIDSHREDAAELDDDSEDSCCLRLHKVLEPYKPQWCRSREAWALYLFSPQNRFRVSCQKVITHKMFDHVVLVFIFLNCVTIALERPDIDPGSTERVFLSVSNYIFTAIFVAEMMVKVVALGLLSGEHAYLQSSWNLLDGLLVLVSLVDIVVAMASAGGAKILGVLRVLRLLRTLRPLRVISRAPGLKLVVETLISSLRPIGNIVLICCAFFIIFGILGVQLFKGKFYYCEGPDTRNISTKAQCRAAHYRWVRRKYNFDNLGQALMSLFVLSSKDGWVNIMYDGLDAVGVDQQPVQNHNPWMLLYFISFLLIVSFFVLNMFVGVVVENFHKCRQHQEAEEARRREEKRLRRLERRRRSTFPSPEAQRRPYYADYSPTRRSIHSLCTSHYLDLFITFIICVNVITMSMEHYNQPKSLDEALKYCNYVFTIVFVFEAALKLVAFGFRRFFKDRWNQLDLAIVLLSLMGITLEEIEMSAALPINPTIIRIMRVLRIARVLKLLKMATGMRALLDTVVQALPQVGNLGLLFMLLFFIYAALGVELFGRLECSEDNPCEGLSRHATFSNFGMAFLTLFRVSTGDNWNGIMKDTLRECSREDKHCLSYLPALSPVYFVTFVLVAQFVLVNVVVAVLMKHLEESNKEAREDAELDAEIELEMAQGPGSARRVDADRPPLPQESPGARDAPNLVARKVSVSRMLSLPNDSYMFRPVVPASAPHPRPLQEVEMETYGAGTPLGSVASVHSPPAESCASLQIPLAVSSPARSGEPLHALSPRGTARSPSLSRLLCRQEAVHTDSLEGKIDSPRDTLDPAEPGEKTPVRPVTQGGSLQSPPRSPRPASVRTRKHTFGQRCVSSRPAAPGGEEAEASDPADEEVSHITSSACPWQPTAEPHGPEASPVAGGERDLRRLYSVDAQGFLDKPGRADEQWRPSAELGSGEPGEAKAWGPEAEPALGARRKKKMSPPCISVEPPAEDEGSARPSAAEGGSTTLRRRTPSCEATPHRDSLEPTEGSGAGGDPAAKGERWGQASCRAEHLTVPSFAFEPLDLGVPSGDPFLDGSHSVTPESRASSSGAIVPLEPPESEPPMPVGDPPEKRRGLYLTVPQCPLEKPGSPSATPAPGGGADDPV

| Kd [nM] | Structure (SMILES) |
| --- | --- |
| 4640 | Cc1c(C(=O)N2CCN(c3ccccc3F)CC2)sc2ncn(CC(=O)N3CCC(F)(F)C3)c(=O)c12 [Compound 79, 3-(2-(3,3-difluoropyrrolidin-1-yl)-2-oxoethyl)-6-(4-(2-fluorophenyl)piperazine-1-carbonyl)-5-methylthieno[2,3-d]pyrimidin-4(3H)-one] |
| 2440 | Cc1c(C(=O)N2CCN(c3ccc(F)cc3)CC2)sc2ncn(CC(=O)N3CCC(F)(F)C3)c(=O)c12 [Compound 90] |
| 6310 | Cc1c(C(=O)N2CCN(c3ccc(F)cc3)CC2)sc2ncn(CC(=O)N3CC[C@H](F)C3)c(=O)c12 [Compound 91, (S)-6-(4-(4-fluorophenyl)-piperazine-1-carbonyl)-3-(2-(3-fluoropyrrolidin-1-yl)-2-oxoethyl)-5-methylthieno[2,3-d]pyrimidin-4(3H)-one] |

The next lines start with the molecule.

| Structure (SMILES) | Kd [nM] |
| --- | --- |
| CCN(CC)C(=O)Cn1cnc2sc(C(=O)N3CCN(c4cccc(Cl)c4)CC3)c(C)c2c1=O [Compound 1, 2-(6-(4-(3-chlorophenyl)piperazine-1-carbonyl)-5-methyl-4-oxothieno[2,3-d]pyrimidin-3(4H)-yl)-N,N-diethylacetamide] | 890 |
| CCN(CC)C(=O)Cn1cnc2sc(C(=O)N3CCN(c4ccc(Cl)cc4)CC3)c(C)c2c1=O [Compound 5, 2-(6-(4-(4-chlorophenyl)piperazine-1-carbonyl)-5-methyl-4-oxothieno[2,3-d]pyrimidin-3(4H)-yl)-N,N-diethylacetamide] | 620 |
| CCN(CC)C(=O)Cn1cnc2sc(C(=O)N3CCN(c4cccc(F)c4)CC3)c(C)c2c1=O [Compound 7, N,N-diethyl-2-(6-(4-(3-fluorophenyl)piperazine-1-carbonyl)-5-methyl-4-oxothieno[2,3-d]pyrimidin-3(4H)-yl)acetamide] | 1140 |
| Cc1c(C(=O)N2CCN(c3ccccc3)CC2)sc2ncn(CC(=O)NC(C)(C)C)c(=O)c12 [Compound 13, N-tert-butyl-2-(5-methyl-4-oxo-6-(4-phenylpiperazine-1-carbonyl)thieno[2,3-d]pyrimidin-3(4H)-yl)acetamide] | 2140 |
| Cc1c(C(=O)N2CCN(c3cccc([N+](=O)[O-])c3)CC2)sc2ncn(CC(=O)NC3CCCCC3)c(=O)c12 [Compound 29, N-cyclohexyl-2-(5-methyl-6-(4-(3-nitrophenyl)piperazine-1-carbonyl)-4-oxothieno[2,3-d]pyrimidin-3(4H)-yl)acetamide] | 950 |
| Cc1c(C(=O)N2CCN(c3ccccc3F)CC2)sc2ncn(C(C)C(=O)NC3CCCCC3)c(=O)c12 (stereo not shown) [Compound 34, N-cyclohexyl-2-(6-(4-(2-fluorophenyl)piperazine-1-carbonyl)-5-methyl-4-oxothieno[2,3-d]pyrimidin-3(4H)-yl)propanamide] | 440 |
| Cc1c(C(=O)N2CCN(c3ccccc3)CC2)sc2ncn(CC(=O)NC3CCCC3)c(=O)c12 [Compound 41, N-cyclopentyl-2-(5-methyl-4-oxo-6-(4-phenylpiperazine-1-carbonyl)thieno[2,3-d]pyrimidin-3(4H)-yl)acetamide] | 830 |
| Cc1c(C(=O)N2CCN(c3ccccc3)CC2)sc2ncn(C(C)C(=O)NC3CCCC3)c(=O)c12 (stereo not shown) [Compound 46, N-cyclopentyl-2-(5-methyl-4-oxo-6-(4-phenylpiperazine-1-carbonyl)thieno[2,3-d]pyrimidin-3(4H)-yl)propanamide] | 520 |
| Cc1c(C(=O)N2CCN(c3ccccc3F)CC2)sc2ncn(C(C)C(=O)NC3CCCC3)c(=O)c12 (stereo not shown) [Compound 47, N-cyclopentyl-2-(6-(4-(2-fluorophenyl)piperazine-1-carbonyl)-5-methyl-4-oxothieno[2,3-d]pyrimidin-3(4H)-yl)propanamide] | 560 |
| Cc1c(C(=O)N2CCN(c3ccccc3F)CC2)sc2ncn(CC(=O)Nc3ccccc3)c(=O)c12 [Compound 51, 2-(6-(4-(2-fluorophenyl)piperazine-1-carbonyl)-5-methyl-4-oxothieno[2,3-d]pyrimidin-3(4H)-yl)-N-phenylacetamide] | 570 |
